Source: US6355658B1, “Coumarin derivatives, methods of preparation and application as medicines” (Centre National de la Recherche Scientifique, priority 1997, dated 2002)
Like-named read-outs stand apart in the source and are kept apart here.

Assays:
[1] = target: T1, human leukocyte elastase (Homo sapiens, UniProt P08246); test: Inactivation kinetics of human leukocyte elastase (chromogenic substrate MeOSuc-Ala2-Pro-Val-pNA); assay type: biochemical; conditions: 25° C., pH 8.0
T1 sequence (P08246 30-247 limits assumed): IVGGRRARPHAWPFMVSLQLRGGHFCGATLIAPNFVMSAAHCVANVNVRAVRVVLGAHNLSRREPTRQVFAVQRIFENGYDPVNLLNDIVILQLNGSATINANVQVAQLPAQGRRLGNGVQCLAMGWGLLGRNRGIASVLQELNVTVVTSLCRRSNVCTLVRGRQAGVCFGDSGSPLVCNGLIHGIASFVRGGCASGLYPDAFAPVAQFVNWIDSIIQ
Description: (§1) The inactivating or inhibitory properties of the coumarin derivatives were tested with respect to a certain number of enzymes: human leukocyte elastase, bovine α-chymotrypsin, human thrombin and bovine trypsin. The kinetic measurements were taken at 25° C. in the following buffers: 0.1 M Hepes, 0.5 M NaCl, 0.01% Tween 80, pH 8.0 (human leukocyte elastase); 0.025 M NaH2PO4, 0.05 M KCl, pH 7.5 (α-chymotrypsin); 0.01 M Tris, 0.01 M Hepes, 0.1 M NaCl, 0.1% PEG-6000, pH 7.5 (human thrombin); 0.1 M Tris, 0.01 M CaCl2, pH 7.5 (bovine trypsin). The chromogenic substrates used to determine the activity of the enzymes are: MeOSuc-Ala2-Pro-Val-pNA (human leukocyte elastase); Suc-Ala2-Pro-Phe-pNA (α-chymotrypsin); H-D-Phe-Pip-Arg-pNA (human thrombin); N-benzoyl-Arg-pNA (bovine trypsin) (pNA: para-nitroaniline).
(§2) The interaction of a suicide substrate with a serine protease corresponds to the minimum reaction scheme described in equation 1 in which E represents the enzyme, I represents the inhibitor, E-I represents the acyl-enzyme and E-I′ represents the inactivated enzyme [Silverman R. B., 1988, “Mechanism-based enzyme inactivation: chemistry and enzymology”, volume 1 CRC Press, Boca Raton, Fla.]: [drawing 76]
(§3) When k4 is small compared to k3, equation 1 can be simplified (equation 2, [Daniels et al., 1983, J. Biol. Chem., 258: 15046-15053]): [drawing 77]
(§4) Considering the first instants of the reaction, the system reduces to a simplified equation of the form of equation 2.
(§5) The kinetic constants characterizing the inactivation of the enzymes with the coumarin derivatives were determined using either the conventional sampling method (or batchwise method) or a method placing the inhibitor and the substrate in competition (or continuous method); these methods are described by Pochet et al. [Pochet et al., 1996, J. Med. Chem., 39: 2579-2585].
(§6) The inactivation of serine proteaaes with the coumarin derivatives is thus characterized by the following constants (see Eq. 2):
(§7) KI: apparent dissociation constant of an enzyme-inhibitor complex located upstream of ki
(§8) ki: first-order rate constant for inactivation at infinite inhibitor concentration
(§9) ki/KI: index of the overall inactivating efficacy of the inhibitor.

[2] = target: T2, bovine α-chymotrypsin (Bos taurus, UniProt P00766); test: Inactivation kinetics of bovine α-chymotrypsin (chromogenic substrate Suc-Ala2-Pro-Phe-pNA); assay type: biochemical; conditions: 25° C., pH 7.5, N.I. = non-inactivator; for kinact/KI: read-out: Ki/KI or kobs/[I], α-CT
T2 construct: bovine α-chymotrypsin
Description: as §1, §2, §3, §4, §5, §6, §7, §8, §9

[3] = target: T3, human thrombin (Homo sapiens, UniProt P00734); test: Inactivation kinetics of human thrombin (chromogenic substrate H-D-Phe-Pip-Arg-pNA); assay type: biochemical; conditions: TABLE 5, phenyl esters, 25° C., pH 7.5, inactivation phase, N.I. = non-inactivator; for kinact/KI: read-out: Ki/KI or kobs/[I], Thrombin
T3 construct: human thrombin
Description: as §1, §2, §3, §4, §5, §6, §7, §8, §9

[4] = TABLE 5, phenyl esters, inactivation phase, N.I. = non-inactivator, read-out: Ki/KI or kobs/[I], HLE
[5] = TABLE 5, phenyl esters, without 6-chloromethyl: inactivation phase of transient inactivation

| kinact/KI [1, 4] [M⁻¹ s⁻¹] | kinact/KI [2, 5] [M⁻¹ s⁻¹] | melting point | Compound | other results |
| --- | --- | --- | --- | --- |
| 350 | 1200 | – | COc1cc(Cl)cc(OC(=O)c2cc3cc(CCl)ccc3oc2=O)c1 [Ic″7, 3-chloro-5-methoxyphenyl 6-chloromethyl-2-oxo-2H-1-benzopyran-3-carboxylate] | – |
| 4000 | 110000 | – | O=C(Oc1cc(Cl)cc(Cl)c1)c1cc2cc(CCl)ccc2oc1=O [Ic″6, 3,5-dichlorophenyl 6-chloromethyl-2-oxo-2H-1-benzopyran-3-carboxylate] | Ki/KI or kobs/[I], Thrombin [3]: N.I. |
| < 200 | 730000 | 194 to 195 °C | O=C(Sc1cccc(Cl)c1)c1cc2cc(CCl)ccc2oc1=O [III2, S-(3-chlorophenyl) 6-chloromethyl-2-oxo-2H-1-benzopyran-3-carbothioate] | Ki/KI or kobs/[I], Thrombin [3]: — N.I. |
| – | – | 224 to 226 °C | Cc1ccc2oc(=O)c(C(=O)Oc3cc(F)ccc3[N+](=O)[O-])cc2c1 [Ib6, 5-fluoro-2-nitrophenyl 6-methyl-2-oxo-2H-1-benzopyran-3-carboxylate] | – |
| 3000 | – | 175 to 179 °C | Cc1ccc2oc(=O)c(C(=O)Oc3cc(Cl)ccc3Cl)cc2c1 [Ib3, 2,5-dichlorophenyl 6-methyl-2-oxo-2H-1-benzopyran-3-carboxylate] | – |
| < 200 | – | – | O=C(Oc1c(Cl)cccc1Cl)c1cc2cc(CCl)ccc2oc1=O [Ic″5, 2,6-dichlorophenyl 6-chloromethyl-2-oxo-2H-1-benzopyran-3-carboxylate] | Ki/KI or kobs/[I], α-CT [2, 5]: N.I.; Ki/KI or kobs/[I], Thrombin [3]: — — — — N.I. N.I. |
| – | – | 187 to 190 °C | Cc1ccc2oc(=O)c(C(=O)Oc3cc(F)ccc3Br)cc2c1 [Ib5, 2-bromo-5-fluorophenyl 6-methyl-2-oxo-2H-1-benzopyran-3-carboxylate] | – |
| – | – | 203 to 205 °C | O=C(Oc1cc(F)ccc1Br)c1cc2cc(CCl)ccc2oc1=O [Ic″9, 2-bromo-5-fluorophenyl 6-chloromethyl-2-oxo-2H-1-benzopyran-3-carboxylate] | – |
| – | – | 127 °C (dec.) | O=C(Oc1cccc2cccnc12)c1cc2cc(CCl)ccc2oc1=O [Ic″″1, 8-quinolyl 6-chloromethyl-2-oxo-2H-1-benzopyran-3-carboxylate] | – |

Continued, compound first:

| Compound | kinact/KI [1, 4] [M⁻¹ s⁻¹] | kinact/KI [2, 5] [M⁻¹ s⁻¹] | melting point | other results |
| --- | --- | --- | --- | --- |
| O=C(Oc1ccccc1[N+](=O)[O-])c1cc2cc(CCl)ccc2oc1=O [Ic″1, 2-nitrophenyl 6-chloromethyl-2-oxo-2H-1-benzopyran-3-carboxylate] | 1250 | 9300 | 163 to 164 °C | – |
| CC(=O)OCc1ccc2oc(=O)c(C(=O)Oc3cc(Cl)ccc3Cl)cc2c1 [Id11, 2,5-dichlorophenyl 6-acetoxymethyl-2-oxo-2H-1-benzopyran-3-carboxylate] | – | – | 168 to 171 °C | kinact/KI [3]: 500 M⁻¹ s⁻¹ |
| O=C(Oc1cc(F)ccc1F)c1cc2ccccc2oc1=O [Ia5, 2,5-difluorophenyl 2-oxo-2H-1-benzopyran-3-carboxylate] | – | – | 134 to 137 °C | Ki/KI or kobs/[I], Thrombin [3]: N.I. |
| O=C(Oc1cc(Cl)ccc1Cl)c1cc2ccccc2oc1=O [Ia4, 2,5-dichlorophenyl 2-oxo-2H-1-benzopyran-3-carboxylate] | 5800 | – | 189 to 192 °C | Ki/KI or kobs/[I], Thrombin [3]: N.I. |
| O=C(Oc1cc([N+](=O)[O-])ccc1[N+](=O)[O-])c1cc2ccccc2oc1=O | – | – | 223 to 225 °C | – |
| CC(=O)OCc1ccc2oc(=O)c(C(=O)Oc3cc(F)ccc3F)cc2c1 [Id12, 2,5-difluorophenyl 6-acetoxymethyl-2-oxo-2H-1-benzopyran-3-carboxylate] | – | – | 137 to 139 °C | kinact/KI [3]: 150 M⁻¹ s⁻¹ |
| CC(=O)OCc1ccc2oc(=O)c(C(=O)Oc3cccc(Cl)c3)cc2c1 [Id2, 3-chlorophenyl 6-acetoxymethyl-2-oxo-2H-1-benzopyran-3-carboxylate] | 1440 | 20000 | – | kinact/KI [3]: 580 M⁻¹ s⁻¹ |
| O=C(Oc1cc([N+](=O)[O-])ccc1[N+](=O)[O-])c1cc2cc(CCl)ccc2oc1=O | – | – | 153 to 157 °C | – |
| O=C(Oc1cc2ccccc2cn1)c1cc2ccccc2oc1=O [Ia10, 3-isoquinolyl 2-oxo-2H-1-benzopyran-3-carboxylate] | – | – | 160 to 163 °C | – |
| CC(=O)OCc1ccc2oc(=O)c(C(=O)Oc3cc(Cl)cc(Cl)c3)cc2c1 [Id13, 3,5-dichlorophenyl 6-acetoxymethyl-2-oxo-2H-1-benzopyran-3-carboxylate] | – | – | 146 to 150 °C | – |
| CC(=O)OCc1ccc2oc(=O)c(C(=O)Oc3cc(F)ccc3[N+](=O)[O-])cc2c1 [Id15, 5-fluoro-2-nitrophenyl 6-acetoxymethyl-2-oxo-2H-1-benzopyran-3-carboxylate] | – | – | 157 to 161 °C | – |
| Cc1ccc2oc(=O)c(C(=O)Oc3cccc(Cl)c3)cc2c1 [Ib1, 3-chlorophenyl 6-methyl-2-oxo-2H-1-benzopyran-3-carboxylate] | 1100 | 9400 | 175 to 176 °C | – |
| O=C(Sc1ccccc1)c1cc2cc(CCl)ccc2oc1=O [III1, S-phenyl 6-chloromethyl-2-oxo-2H-1-benzopyran-3-carbothioate] | – | 39000 | – | Ki/KI or kobs/[I], HLE ([1]; TABLE 5, phenyl esters, inactivation phase, N.I. = non-inactivator): N.I. |
| Cc1cncc(OC(=O)c2cc3cc(CCl)ccc3oc2=O)c1 [Ic′″2, 5-methyl-3-pyridyl 6-chloromethyl-2-oxo-2H-1-benzopyran-3-carboxylate] | – | – | 211 °C (dec.) | – |
| O=C(OC1CCCCC1)c1cc2cc(CCl)ccc2oc1=O [Ic′1, cyclohexyl 6-chloromethyl-2-oxo-2H-1-benzopyran-3-carboxylate] | – | – | 185 to 186 °C | – |
| Cc1ccc2oc(=O)c(C(=O)Oc3cc(F)ccc3F)cc2c1 [Ib4, 2,5-difluorophenyl 6-methyl-2-oxo-2H-1-benzopyran-3-carboxylate] | – | – | 155 to 159 °C | – |
| CCC(=O)OCc1ccc2oc(=O)c(C(=O)Oc3ccccc3)cc2c1 [Id5, phenyl 6-propionyloxymethyl-2-oxo-2H-1-benzopyran-3-carboxylate] | – | – | 186 to 187 °C | – |
| O=C(Oc1cccc(Cl)c1Cl)c1cc2cc(CCl)ccc2oc1=O [Ic″3, 2,3-dichlorophenyl 6-chloromethyl-2-oxo-2H-1-benzopyran-3-carboxylate] | < 200 | 1200 | – | Ki/KI or kobs/[I], Thrombin [3]: — — — — N.I. N.I. |
| O=C(Oc1cncc(Cl)c1)c1cc2cc(Br)ccc2oc1=O [Ig1, 5-chloro-3-pyridyl 6-bromo-2-oxo-2H-1-benzopyran-3-carboxylate] | – | – | – | kinact/KI ([1]; TABLE 3, no chloromethyl in position 6, inactivation phase of transient inactivation, read-out: Ki/KI or kobs/[I], LHE): 58000 M⁻¹ s⁻¹; Ki/KI or kobs/[I], α-CT ([2]; TABLE 3, no chloromethyl in position 6): # N.I. |
| CC(=O)OCc1ccc2oc(=O)c(C(=O)Oc3cc(F)ccc3Br)cc2c1 [Id14, 2-bromo-5-fluorophenyl 6-acetoxymethyl-2-oxo-2H-1-benzopyran-3-carboxylate] | – | – | 148 to 150 °C | – |
| O=C(Oc1cccc(C(F)(F)F)c1)c1cc2cc(CCl)ccc2oc1=O [Ic″2, 3-trifluoromethylphenyl 6-chloromethyl-2-oxo-2H-1-benzopyran-3-carboxylate] | 330 | < 500 | 162 to 163 °C | – |
